Common to all, as to format: in vivo
One test concerns SOX-9. Put plainly: SOX-9 expression in skin tissue after oral administration (fluorescence imaging). Particulars: 100 μg/Kg/0.1 ml twice a week, 2 months, APP/PS/Tau mouse. The method, then:
(§1) Accordingly, the present inventors examined whether expressions of hair growth stimulating factors, SOX-2 and SOX-9 were increased in hair loss animal models by the benzene diamine derivatives of the present disclosure. In order to examine SOX-2 and SOX-9 expressions inside skin tissues, APP/PS/Tau mouse which is a hair loss-induced mouse model was selected as a control group and C57BL6 mouse was selected as a normal group, as in Example 5. An experimental group was prepared by orally administering the control group with the benzene diamine derivative at a concentration of 100 μg/Kg/0.1 ml using a zonde twice a week. 2 months later, incision of the skin was performed under local anesthesia, and the skin tissues were fixed in 4% paraformaldehyde solution for 24 hours, and fixed in a plastic mold with O.C.T. Compound (SAKURA, USA) for cryostat sectioning. […] Thereafter, the plate was put on a slide glass and covered with a cover slide, and stored in a dark acrylic box, and fluorescence imaging was observed under a confocal microscope (LSM710, Carl Zeiss, Germany) by 405/488/565 nm laser. […]

Another test concerns SOX-2. Put plainly: SOX-2 expression in skin tissue after oral administration (fluorescence imaging). Particulars: 100 μg/Kg/0.1 ml twice a week, 2 months, APP/PS/Tau mouse. The method, then: as §1
The subject of test [1] is hair loss mouse model APP/PS/Tau. Put plainly: Hair loss mouse model, oral administration, changes in appearance. The conditions noted are these: 100 μg/Kg twice a week for 2 months. The source says:
(§2) APP/PS/Tau was purchased as a dementia mouse model from Jackson lab (BAR HARBOR, USA), and APP/Tau female and APP/PSen1de9 purchased from Taconic (Hudson, USA) were cross-mated for 6 generations, and 4-month-old mouse models were obtained from F1.
In order to examine therapeutic effects of the benzene diamine derivative of the present disclosure on hair loss, the benzene diamine derivative was orally administered to hair loss-induced mouse models, and changes in appearance were examined. The animal model of Experimental Example 2-1 was characterized by appearance of hair loss as well as dementia symptoms. Therefore, the animal model of Experimental Example 2-1 was used as a hair loss mouse model.
The hair loss mouse models were divided into groups of 6 mice, and among the hair loss mouse models, the control group were orally administered with a phosphate buffer vehicle (PBS) for 2 months, and the experimental group was orally administered with 100 μl of N1-(pyridin-2-ylmethyl)benzene-1,4-diamine (Compound 2) at a concentration of 100 μg/Kg twice a week for 2 months. Thereafter, changes in their appearance were compared.

Test [2] has as its system dementia mouse model APP/PS/Tau. Briefly: Morris water maze test in dementia mouse model. The conditions noted are these: for mean escape latency: 100 μg/kg twice a week for 2 months.
From the text: as §2
In order to examine therapeutic effects of the benzene diamine derivative of the present disclosure on dementia, enhancement of spatial cognition and memory in dementia mouse models were investigated. For this investigation, a Morris water maze (Harvard Apparatus, USA) test was performed.
In detail, a water maze composed of a stainless steel pool with a diameter of 150 cm×a height of 60 cm and an escape platform (10 cm in diameter, 30 cm in height) was filled with water at […], and the height was 2 cm above the platform such that when a mouse sat on the escape platform, the body was allowed to come out of the water. […] Escape latency was measured as the time taken for the experimental animal to go to the escape platform when the experimental animal went to the escape platform and stayed thereon for more than 20 seconds. This test was performed three times a day, and a mean value was determined as mean escape latency. The escape latency was recorded on the computer program (Smart Video Tracking System V3.0, PanLab SL, Barcelona, Spain) by installing a camera on the ceiling above the water tank. The experiment was performed three times a day for 6 days, and at this time, the possibility of accidentally visiting the escape platform was minimized by sequentially changing the positions of the experimental animals in the water tank. In the experiment, a normal mouse, a control dementia mouse administered with a vehicle (PBS) and an experimental dementia mouse administered with 100 μg/kg of N^1-(pyridin-2-ylmethyl)benzene-1,4-diamine (Compound 2) twice a week for 2 months were used after completing administration.

In the next test the test system is monomer/oligomer Aβ. Briefly: Monomer/oligomer Aβ expression in skin tissue after oral administration (fluorescence imaging). The conditions noted are these: 100 μg/Kg/0.1 ml twice a week, 2 months, APP/PS/Tau mouse.

With “N^1-(pyridin-2-ylmethyl)benzene-1,4-diamine [Compound 2]”, the “SOX-9 expression in skin” value in the test on SOX-9 is recorded as “remarkably increased”. Also, the “SOX-2 expression in skin” value in the test with SOX-2 is “remarkably expressed close to the normal group”. Further, in test [1], the “changes in appearance (hair loss)” value is recorded as “remarkable improvement in hair loss”. Besides, the mean escape latency entry in test [2] (at 3 days, compared with dementia control group) is given as “significantly short mean escape latency”. Also, in test [2] (at 4 days), the “difference of mean escape latency, control group vs experimental group” value was determined as 16 s and the mean escape latency turned out to be 26 ± 1 s. Moreover, in test [2] (at 5 days), the “difference of mean escape latency, dementia group vs treated group” value was 19 s and the mean escape latency is 24 ± 1 s. For the same substance, the “monomer/oligomer Aβ expression in skin” value in the test with monomer/oligomer Aβ is on record as “decreased”.

Source of the values: US20190091168A1, “FORMULATION FOR ENHANCED TRANSDERMAL ABSORPTION OF DRUG” (UNIST(ULSAN NATIONAL INSTITUTE OF SCIENCE AND TECHNOLOGY), priority 2017, published 2019).
